Measurements reported in US9956232B2, “Dialkyl-phosphinoyl-alkane (Dapa) compounds and compositions for treatment of lower gastrointestinal tract disorders” (priority 2016, dated 2018).
Where “and” joins values, the source holds several entries; their conditions need not be identical. Identical values can stand only once. Entries after “also recorded” stand apart in the source; their conditions may differ.

Key:
[1] = test system: pentobarbital-anesthetized male rats; experiment: Shaking frequency (wet-dog shaking) of anesthetized rats after intravenous, perioral or topical delivery; type: in vivo; conditions: anesthetized rat; for Shaking frequency, Intravenous: 2 mg/kg i.v., 2nd trial, counted for 15 min; for Shaking frequency, Perioral: 20 mg/kg by oral gavage, counted for 40 min; for Shaking frequency, Topical: 20 μL pure compound on shaved abdominal skin, counted for 1 hr
Protocol: In experiments conducted here, test compounds were evaluated for “wet-dog shaking” as a model of cooling sensation. Using a standardized procedure, test compounds were compared in their ability to stimulate the shaking response by intravenous injection into a cannulated femoral vein, by perioral administration, and by topical delivery to the abdominal skin.
Each rat was given two injections with a 30 min interval. […] Shaking frequency was counted for 15 min after injection. Shaking was observed immediately after i.v. injection and at least 78% of the total shakes occurred in the first 5 min after injection. The response in the second trial was at least as robust in the first trial, showing the lack of desensitization.
Test compounds were dissolved in saline and administered by oral gavage to pentobarbital-anesthetized male albino rats at 20 mg/kg at a volume of 0.1 mL/100 g body weight [N=3 to 4 rats per compound]. Shaking was counted over a 40 min period and recorded at 10-min intervals.
For topical application of DAPA, the abdominal skin of the anesthetized rat was shaved and 20 μL of the pure DAPA was applied with a micropipette onto a ˜1 cm diameter circle of skin, enclosed with a ring of cream [Baby cream “Nevskaya kosmetika Detskyi” Nevskaya Kosmetika Inc., Saint-Petersburg 192029], as shown in FIG. 5D. The number of shakes was counted for 1 hr after application.

[2] = molecular target: T1, TRPM8 (Homo sapiens, UniProt Q7Z2W7); experiment: TRPM8 receptor agonist assay (Fluo-8 calcium, FLIPR); type: cell-based; set-up: host or cells: CHO cells, stably transfected; conditions: for ×Menthol: TRPM8 relative potency as repeated in Table 4; for Relative Potency: relative to menthol = 1.0 (Table 2)
Protocol: Compounds were tested on (CHO) cells stably transfected with human TRPM8 cDNAs using a Fluo-8 calcium kit and a Fluorescence Imaging Plate Reader ([…]™) instrument. […] Solutions were prepared by diluting stock solutions in a HEPES-buffered physiological saline (HBPS) solution. Test compound and control formulations were loaded in polypropylene or glass-lined 384-well plates, and placed into the FLIPR instrument (Molecular Devices Corporation, Union City, Calif., USA). Each was tested at 8 concentrations with n=4 replicates per determination. […] For […]™ assay, cells were plated in 384-well black wall, flat clear-bottom microtiter plates (Type: BD Biocoat Poly-D-Lysine Multiwell Cell Culture Plate) at approximately 30,000 cells per well. Cells were incubated at 37° C. overnight to reach a near confluent monolayer appropriate for use in a fluorescence assay. The test procedure was to remove the growth media and to add 40 μL of HBPS containing Fluo-8 for 30 minutes at 37° C. 10 μL of test compound, vehicle, or control solutions in HBPS were added to each well and read for 4 minutes. Concentration-response data were analysed via the FLIPR Control software that is supplied with the FLIPR System (MDS-AT) and fitted to a Hill equation.
Target sequence in this assay (Q7Z2W7 whole entry): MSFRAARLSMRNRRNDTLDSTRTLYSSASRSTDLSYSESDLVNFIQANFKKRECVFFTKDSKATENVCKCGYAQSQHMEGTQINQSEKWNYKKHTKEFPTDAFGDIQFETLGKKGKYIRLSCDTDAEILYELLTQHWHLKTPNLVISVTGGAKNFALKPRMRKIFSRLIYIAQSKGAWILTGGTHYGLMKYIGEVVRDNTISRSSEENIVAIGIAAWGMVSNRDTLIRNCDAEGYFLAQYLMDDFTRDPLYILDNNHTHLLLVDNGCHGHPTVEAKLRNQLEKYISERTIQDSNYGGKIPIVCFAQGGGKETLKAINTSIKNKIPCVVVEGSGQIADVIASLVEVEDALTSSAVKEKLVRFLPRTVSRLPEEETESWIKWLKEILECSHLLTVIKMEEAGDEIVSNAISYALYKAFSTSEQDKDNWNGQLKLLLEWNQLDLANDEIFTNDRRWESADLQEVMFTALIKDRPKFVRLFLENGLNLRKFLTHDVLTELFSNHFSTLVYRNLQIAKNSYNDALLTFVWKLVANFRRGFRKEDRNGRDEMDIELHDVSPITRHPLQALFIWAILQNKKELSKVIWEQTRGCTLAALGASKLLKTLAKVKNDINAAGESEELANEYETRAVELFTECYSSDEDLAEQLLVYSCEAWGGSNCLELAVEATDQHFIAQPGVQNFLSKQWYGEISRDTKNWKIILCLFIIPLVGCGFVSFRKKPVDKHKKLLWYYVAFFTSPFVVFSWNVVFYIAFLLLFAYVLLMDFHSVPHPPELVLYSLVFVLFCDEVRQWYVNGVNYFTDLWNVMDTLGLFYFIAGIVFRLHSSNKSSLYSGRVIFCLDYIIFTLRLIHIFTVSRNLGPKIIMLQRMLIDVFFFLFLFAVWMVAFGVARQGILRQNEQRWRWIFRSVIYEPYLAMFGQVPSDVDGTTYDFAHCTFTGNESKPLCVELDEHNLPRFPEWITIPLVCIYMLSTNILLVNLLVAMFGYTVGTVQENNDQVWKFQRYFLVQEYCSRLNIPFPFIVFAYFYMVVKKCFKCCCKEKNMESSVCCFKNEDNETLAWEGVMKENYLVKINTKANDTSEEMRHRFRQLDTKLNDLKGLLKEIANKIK

[3] = test system: heat-induced edema in the anesthetized rat paw; experiment: Heat-induced edema in the anesthetized rat paw; type: in vivo; conditions: 20 mg/mL, 0.3 mL per paw, 30 min before 58° C. water 1 min; relative to contralateral paw
From the text: Inflammation is defined as the reaction of vascularized living tissue to local injury [Cotran, R S. 1989. Inflammation and repair. In Robbins: Pathologic Basis of Disease, ed. S. L. Robbins, R. S. Cotran, V. Kumar, 2:39-86. Philadelphia: Saunders. 4th ed.]. The characteristic signs of inflammation are redness, swelling, heat, and pain (and loss of function). The anti-inflammatory properties of the DAPA compounds were studied in a model of heat-induced vascular leakage [Wei et al. Method of inhibiting inflammatory response. U.S. Pat. No. 4,801,612; Wei et al., Anti-inflammatory peptide agonists. Annual Review Pharmacol Toxicol. 33:9-108, 1993]. When the paws of pentobarbital-anesthetized rats (200 to 300 g body weight) are immersed in 58° C. water for 1 min, the normal paw volume of about 1.8 mL was increased by ˜88% within 30 min, the swelling being due to an increase in water content of the paw.
Test compounds were dissolved in 20% water-80% R-1,2-propanediol at 20 mg/mL. The solutions were applied to the paw skin of pentobarbital-anesthetized rats (200 to 300 g body weight) at 0.3 mL per paw, using a syringe attached to a blunt 21 gauge needle covered at its tip with a piece of polyethylene 60 tubing. After distributing the solution over the paw, the paw was tightly enclosed in a plastic finger cut from a disposable glove. The contralateral paw [control] received only the vehicle. Thirty min after application, both paws were immersed in 58° C. water for 1 min. Thirty min after immersion, both paws were cut at ankle joint with scissors and weighed.
This degree of inhibition is significant for tissue protection as the injury stimulus is of supra-maximal intensity. The DAPA-2-5 effect was apparent to the untrained observer.

[4] = test system: Strains TA 98 and TA100; experiment: Ames test; type: cell-based; conditions: TA 98 and TA100, with and without liver activation
Protocol: Preliminary toxicological studies were conducted on DAPA-2-5 and DAPA-2-7.

[5] = Repeated-dose toxicity in male rats (organ weights, histology); type: in vivo, rat; conditions: 30 mg/kg subcutaneously daily for 7 days, male rats
[6] = molecular target: TRPV1 (Homo sapiens, UniProt Q8NER1); experiment: TRPV1 selectivity assay, calcium entry in transfected HEK293 cells; type: cell-based; set-up: expressed in transfected cells; host or cells: HEK293 cells; conditions: maximum tested concentration 100 μM
From the text: (§1) The selectivity of test compounds were examined on TRPV1 channels (human TRPV1 gene expressed in HEK293 cells) and TRPA1 channels (human TRPA1 gene expressed in CHO cells). The test cells were Chinese Hamster Ovary (CHO) cells or Human Embyronic Kidney (HEK) 293 cells transfected with human TRPV1 or TRPA1 cDNAs.
(§2) The ordinate is given in Relative Fluorescence Units; % of maximum, which measure calcium entry into the transfected cells and the abscissa is the logarithm of the concentration of the test compound.

[7] = molecular target: TRPA1 (Homo sapiens, UniProt O75762); experiment: TRPA1 selectivity assay, calcium entry in transfected CHO cells; type: cell-based; set-up: expressed in transfected cells; host or cells: CHO cells; conditions: maximum tested concentration 100 μM
From the text: as §1, §2

[8] = test system: isolated mouse vagus; experiment: Capsaicin-induced depolarization of the isolated vagus nerve
From the text: An isolated vagus nerve model was developed at Imperial College, London, U.K. [Birrell et al. TrpA1 agonists evoke coughing in guinea pig and human volunteers. Amer. J. respiratory and critical care medicine 180, 1042-7, 2009; Patel, H. J. et al. Inhibition of guinea-pig and human sensory nerve activity and the cough reflex in guinea-pigs by cannabinoid (CB2) receptor activation. Brit. J. Pharmacol. 140, 261-8, 2003]. In this in vitro assay, segments of the mouse vagus nerve are placed on a platform and the electrical activity is recorded after topical application of capsaicin. Capsaicin is a known irritant that elicits pain when it is applied to the skin and it will depolarize the isolated vagus. […] The similar effect of DAPA-2-5 in this test system was published in U.S. Ser. No. 14/55,042. Briefly, segments of vagus nerve, caudal to the nodose ganglion, were removed from mice with fine forceps and segments placed in oxygenated Krebs solution and bubbled with 95% O2/5% CO2. The desheathed nerve trunk was mounted in a ‘grease-gap’ recording chamber and constantly superfused with Krebs solution with a flow rate of approximately 2 mL/min, and the electrical activity of the nerve monitored with electrodes. The temperature of the perfusate was kept constant at 37° C. by a water bath. Nerve depolarizations were induced by superfusion of the nerve with capsaicin (1 μM). After two reproducible depolarization responses to capsaicin, DIPA-1-7 was applied at 1 mg/mL for 10 minutes in the perfusate followed by capsaicin.

[9] = molecular target: T1, TRPM8; experiment: TRPM8 assay of DIPA-1-10 at King's College, different assay conditions; type: cell-based
From the text: [Table 2] […] The data for DIPA-1-10 is not included in the Table 2 or Figure because it was obtained under different assay conditions.
Target sequence in this assay (Q7Z2W7 whole entry, species assumed): as the sequence (Q7Z2W7 whole entry) above

[10] = molecular target: T1, TRPM8; conditions: literature; cited from earlier work
Target sequence in this assay (Q7Z2W7 whole entry, species assumed): as the sequence (Q7Z2W7 whole entry) above

Sequence of TRPV1 (Q8NER1 whole entry): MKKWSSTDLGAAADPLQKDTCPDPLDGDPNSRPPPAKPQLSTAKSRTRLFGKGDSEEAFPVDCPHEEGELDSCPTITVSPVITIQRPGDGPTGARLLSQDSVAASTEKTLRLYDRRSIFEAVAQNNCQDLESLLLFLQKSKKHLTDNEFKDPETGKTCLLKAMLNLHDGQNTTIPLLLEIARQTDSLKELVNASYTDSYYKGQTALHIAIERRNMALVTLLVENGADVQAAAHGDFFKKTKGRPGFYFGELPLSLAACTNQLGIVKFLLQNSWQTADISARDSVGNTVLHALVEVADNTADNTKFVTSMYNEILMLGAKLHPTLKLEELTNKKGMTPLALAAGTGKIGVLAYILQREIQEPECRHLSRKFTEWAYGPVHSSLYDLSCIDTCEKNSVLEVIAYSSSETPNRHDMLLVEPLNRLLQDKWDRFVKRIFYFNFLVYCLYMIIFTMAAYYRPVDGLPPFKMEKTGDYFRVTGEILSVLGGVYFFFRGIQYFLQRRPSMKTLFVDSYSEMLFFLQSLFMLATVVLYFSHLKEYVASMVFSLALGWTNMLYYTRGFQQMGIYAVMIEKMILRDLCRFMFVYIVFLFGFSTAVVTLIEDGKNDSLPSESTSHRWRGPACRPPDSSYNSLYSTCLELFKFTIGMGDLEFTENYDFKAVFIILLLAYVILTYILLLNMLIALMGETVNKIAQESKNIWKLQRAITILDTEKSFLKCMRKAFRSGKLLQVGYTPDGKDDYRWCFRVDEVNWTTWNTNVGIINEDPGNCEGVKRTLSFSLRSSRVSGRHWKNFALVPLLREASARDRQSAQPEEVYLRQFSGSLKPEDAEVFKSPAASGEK
Sequence of TRPA1 (O75762 whole entry): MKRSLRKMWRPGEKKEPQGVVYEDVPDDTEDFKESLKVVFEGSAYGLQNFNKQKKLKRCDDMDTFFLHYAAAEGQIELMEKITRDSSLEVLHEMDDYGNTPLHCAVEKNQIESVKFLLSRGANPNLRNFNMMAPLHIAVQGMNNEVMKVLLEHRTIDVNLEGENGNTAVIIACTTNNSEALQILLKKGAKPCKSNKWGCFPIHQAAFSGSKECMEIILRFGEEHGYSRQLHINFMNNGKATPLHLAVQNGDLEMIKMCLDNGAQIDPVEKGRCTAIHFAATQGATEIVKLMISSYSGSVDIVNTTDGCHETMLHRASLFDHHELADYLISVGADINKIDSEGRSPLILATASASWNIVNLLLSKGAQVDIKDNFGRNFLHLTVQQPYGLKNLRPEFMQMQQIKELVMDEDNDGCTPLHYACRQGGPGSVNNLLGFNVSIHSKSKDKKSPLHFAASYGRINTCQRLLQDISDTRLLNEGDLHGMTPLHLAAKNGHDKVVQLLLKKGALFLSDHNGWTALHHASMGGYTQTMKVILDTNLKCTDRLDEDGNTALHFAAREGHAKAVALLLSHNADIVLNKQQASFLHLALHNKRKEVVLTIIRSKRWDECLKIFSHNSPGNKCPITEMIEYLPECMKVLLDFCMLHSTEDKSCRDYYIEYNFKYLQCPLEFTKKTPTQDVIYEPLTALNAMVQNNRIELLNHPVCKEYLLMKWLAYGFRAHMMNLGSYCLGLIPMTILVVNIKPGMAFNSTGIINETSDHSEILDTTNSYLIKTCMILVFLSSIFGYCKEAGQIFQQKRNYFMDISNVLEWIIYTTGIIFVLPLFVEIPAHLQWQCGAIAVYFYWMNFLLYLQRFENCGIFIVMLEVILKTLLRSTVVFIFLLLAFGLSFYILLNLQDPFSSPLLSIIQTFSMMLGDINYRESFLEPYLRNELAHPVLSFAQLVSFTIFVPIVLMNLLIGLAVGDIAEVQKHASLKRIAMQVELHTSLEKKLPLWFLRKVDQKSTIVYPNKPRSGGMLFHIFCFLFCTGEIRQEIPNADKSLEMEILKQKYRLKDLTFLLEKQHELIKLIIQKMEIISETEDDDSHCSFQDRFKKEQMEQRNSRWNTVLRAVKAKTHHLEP

Row | Structure (SMILES) | Shaking frequency, Intravenous [1] | Shaking frequency, Perioral [1] | Shaking frequency, Topical [1] | ×Menthol [2] | Relative Potency [2] | Inhibition of Heat Edema (±S.E.M.) [3] | further results
1 | CCCCP(=O)(C(C)CC)C(C)CC (centres unmarked) [DAPA-2-4, 1-Di(sec-butyl) phosphinoyl-butane] | 8 ± 2 shakes | 0 shakes | 0 shakes | 0.3 | 0.3 |  | 
2 | CCCCCCP(=O)(C(C)CC)C(C)CC (centres unmarked) [DAPA-2-6, 1-Di(sec-butyl) phosphinoyl-hexane] | 30 ± 3 shakes | 0 shakes | 0 shakes | 4.7 | 4.7 | 2.9 ± 1.4% | 
3 | CCCCCCCP(=O)(C(C)CC)C(C)CC (centres unmarked) [DAPA-2-7, 1-Di(sec-butyl) phosphinoyl-heptane] | 15 ± 2 shakes | 0 shakes | 0 shakes | 3.4 | 3.4 | 5.2 ± 2.1% | mutagenicity in the Ames test [4]: Neither of these compounds was mutagenic; body or organ weights vs vehicle [5]: no significant differences in body or organ weights; heart and liver histology [5]: normal
4 | CCCCCCCCP(=O)(C(C)CC)C(C)CC (centres unmarked) [DAPA-2-8, 1-Di(sec-butyl) phosphinoyl-octane] | 2. shakes | 0 shakes | 0 shakes | 2.9 | 2.9 |  | 
5 | CCCCCP(=O)(CC(C)C)CC(C)C [DAPA-3-1, 1-Di(iso-butyl) phosphinoyl-pentane] |  |  |  |  | 0.2 |  | 
6 | CCC(C)P(=O)(CCC(C)C)C(C)CC (centres unmarked) [DAPA-3-2, 1-Di(sec-butyl) phosphinoyl-3-methyl-butane] |  |  |  |  | 0.9 |  | 
7 | CCCCCP(=O)(C(C)C)C(C)C [DIPA-1-5, 1-Diisopropyl-phosphinoyl-pentane] | 19 ± 3 shakes | 86 shakes and 86 ± 7 shakes | 138 ± 15 shakes | 0.7 | 0.7 |  | 
8 | CCCCCCP(=O)(C(C)C)C(C)C [DIPA-1-6, 1-Diisopropyl-phosphinoyl-hexane] | 39 ± 4 shakes | 56 shakes and 56 ± 5 shakes | 69 ± 8 shakes | 1.6 | 1.6 |  | 
9 | CCCCCCCP(=O)(C(C)C)C(C)C [DIPA-1-7, 1-Diisopropyl-phosphinoyl-heptane] | 25 ± 3 shakes | 36 shakes and 36 ± 4 shakes | 79 ± 8 shakes | 5.4 | 5.4 | −1.5 ± 2.0% | agonist or antagonist activity on TRPV1 channels [6]: did not exhibit significant agonist on antagonist activity; also recorded: slight non-dose-dependent agonist action; agonist or antagonist activity on TRPA1 channels [7]: did not exhibit significant agonist on antagonist activity; inhibition at 1000 µg/mL ([8]; isolated TRPM8 knock-out mouse vagus, 1 mg/mL, capsaicin 1 μM, read-out: percent inhibition of capsaicin-induced depolarization): ~20%; depolarization evoked by the compound by itself ([8]; isolated mouse vagus, no capsaicin): did not evoke depolarization; percent inhibition of capsaicin-induced depolarization ([8]; isolated normal (wild type) mouse vagus, 1 mg/mL superfused 10 min, capsaicin 1 μM): about 75%
10 | CCCCCCCCP(=O)(C(C)C)C(C)C [DIPA-1-8, 1-Diisopropyl-phosphinoyl-octane] | 14 ± 2 shakes | 0 shakes | 7 ± 2 shakes | 5.4 | 5.4 | −5.0 ± 2.7% | agonist or antagonist activity on TRPV1 channels [6]: did not exhibit significant agonist on antagonist activity; agonist or antagonist activity on TRPV1 channels ([6]; listed as DAPA-1-8): devoid of agonist or antagonist activities; agonist or antagonist activity on TRPA1 channels [7]: did not exhibit significant agonist on antagonist activity; agonist or antagonist activity on TRPA1 channels ([7]; listed as DAPA-1-8): devoid of agonist or antagonist activities
11 | CCCCCCCCCCP(=O)(C(C)C)C(C)C [DIPA-1-10] |  |  |  |  |  |  | potency × menthol [9]: 1.7 ×; times less active than DIPA-1-9 [9]: 2.4 ×
12 | O=C1NC(c2cccc([N+](=O)[O-])c2)=CCN1c1ccccc1O [Icilin] |  |  |  |  |  |  | TRPM8 agonist potency × menthol [10]: 200 ×
13 | COc1cc(CNC(=O)CCCC/C=C/C(C)C)ccc1O [capsaicin, reference compound] |  |  |  |  |  |  | agonist or antagonist activity on TRPV1 channels [6]: active
